Measured values taken from patent US20040029186A1, “Methods” (priority 2000, published 2004).

Molecular target: T1, α4β1 integrin (Homo sapiens, UniProt P05556+P13612)
T1 construct: endogenous in cells; host or cells: cells of heparinised human whole blood
Assay: Human whole blood cell adhesion to VCAM-1 coated magnetic beads, in vitro
Format: cell-based
Details: 1 mM manganese chloride, 1 h room temperature, control samples without antibody
Procedure: Whole human or animal blood (e.g. rat, mouse, dog), was collected into sodium heparin (10 Units/ml blood).
487.5 μl aliquots of heparinised naive human or animal whole blood were dispensed into reaction tubes containing 7.5 μl biotinylated VCAM beads and either 5 μl of a solution of a compound believed to be an α4β1 integrin inhibitor or, as a control, 5 μl of the solvent used to dissolve the compound and either with or without 2 μl anti-α4 antibody. […]
After this time the wash procedure with chilled PBS was carried out three times before the addition of 130 μl per well of 2% Triton X-100 (Sigma T-9284) in distilled water to lyse the cells adhering to the beads. The beads were once again captured by the Dynal MPC® magnet, 100 μl aliquots of the solution from each well was transferred to a clean 96 well flat-bottomed plate and the fluorescence of each well measured using an Fmax fluorimeter (Molecular Devices, Crawley, West Sussex), excitation 485 nm, emission 538 nm. […]
The tubes were rotated on a windmill mixer for 2 h at 4° C. before addition of 500 μl ice cold PBS and placing on a Dynal MPC® magnet for 10 min to recover the beads. […] The fluorescence of each well was measured using a fluorimeter, excitation 485 nm, emission 538 nm. Results were expressed as a percentage of the fluorescence in control samples containing no antibody. […]

T1 sequence (P13612 34-1032): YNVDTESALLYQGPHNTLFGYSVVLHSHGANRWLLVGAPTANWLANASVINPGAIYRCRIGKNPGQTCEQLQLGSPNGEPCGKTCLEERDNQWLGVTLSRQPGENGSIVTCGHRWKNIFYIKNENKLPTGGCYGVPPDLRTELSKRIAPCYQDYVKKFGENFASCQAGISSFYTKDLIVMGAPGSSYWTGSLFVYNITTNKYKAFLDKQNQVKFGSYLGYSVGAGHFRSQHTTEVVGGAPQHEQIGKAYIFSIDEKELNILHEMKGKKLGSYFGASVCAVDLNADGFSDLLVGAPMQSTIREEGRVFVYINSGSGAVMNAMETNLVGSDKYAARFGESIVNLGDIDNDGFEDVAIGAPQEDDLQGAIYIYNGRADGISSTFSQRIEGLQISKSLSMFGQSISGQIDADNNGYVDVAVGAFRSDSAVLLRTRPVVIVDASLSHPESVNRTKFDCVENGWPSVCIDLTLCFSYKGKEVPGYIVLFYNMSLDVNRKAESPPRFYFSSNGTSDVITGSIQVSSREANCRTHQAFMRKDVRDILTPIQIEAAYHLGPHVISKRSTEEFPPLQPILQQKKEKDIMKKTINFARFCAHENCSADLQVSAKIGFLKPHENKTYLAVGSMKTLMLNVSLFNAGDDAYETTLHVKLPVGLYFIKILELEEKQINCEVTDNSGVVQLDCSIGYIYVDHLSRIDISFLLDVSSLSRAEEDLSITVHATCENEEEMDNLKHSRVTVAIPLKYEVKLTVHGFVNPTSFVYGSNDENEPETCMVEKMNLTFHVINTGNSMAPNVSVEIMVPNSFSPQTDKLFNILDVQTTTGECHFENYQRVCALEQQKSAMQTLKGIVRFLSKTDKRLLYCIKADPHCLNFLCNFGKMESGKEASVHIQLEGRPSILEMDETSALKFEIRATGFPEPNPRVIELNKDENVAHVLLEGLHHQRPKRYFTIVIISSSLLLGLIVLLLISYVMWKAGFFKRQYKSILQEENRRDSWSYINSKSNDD
T1 sequence (P05556 21-798): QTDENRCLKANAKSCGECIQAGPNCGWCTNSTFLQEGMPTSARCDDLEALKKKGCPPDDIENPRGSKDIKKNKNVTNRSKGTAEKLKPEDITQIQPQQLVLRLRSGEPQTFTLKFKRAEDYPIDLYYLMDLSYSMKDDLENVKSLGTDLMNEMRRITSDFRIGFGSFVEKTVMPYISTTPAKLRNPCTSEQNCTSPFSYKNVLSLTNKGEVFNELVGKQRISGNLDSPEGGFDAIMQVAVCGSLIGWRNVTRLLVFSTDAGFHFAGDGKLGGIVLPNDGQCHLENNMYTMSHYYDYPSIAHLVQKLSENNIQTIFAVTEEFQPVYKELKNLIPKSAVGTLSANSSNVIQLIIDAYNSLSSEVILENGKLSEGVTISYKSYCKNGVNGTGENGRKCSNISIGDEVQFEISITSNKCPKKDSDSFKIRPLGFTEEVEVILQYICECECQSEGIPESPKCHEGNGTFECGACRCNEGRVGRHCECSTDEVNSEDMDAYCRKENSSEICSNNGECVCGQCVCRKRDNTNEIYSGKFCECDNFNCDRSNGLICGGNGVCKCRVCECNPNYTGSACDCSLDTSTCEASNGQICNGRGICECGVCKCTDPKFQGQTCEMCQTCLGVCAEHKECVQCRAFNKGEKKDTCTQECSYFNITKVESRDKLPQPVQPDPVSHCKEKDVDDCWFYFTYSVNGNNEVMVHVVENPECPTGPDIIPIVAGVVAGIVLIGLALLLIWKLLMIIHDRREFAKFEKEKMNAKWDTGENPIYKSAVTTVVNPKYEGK

Substance: Manganese chloride [Mn^2+]
- increase of whole blood cell adhesion to VCAM-1 coated beads: approximately 2 fold
